From patent US10758534B2 (Vertex Pharmaceuticals Incorporated, priority 2014, dated 2020)
Like-named read-outs stand apart in the source and are kept apart here.

Target: T1, F508del (Homo sapiens, UniProt P13569, DEL508-508)
T1 construct: expressed in transfected cells
Assay: Protocol 2: FRET membrane potential optical assay (VIPR), identification of correction compounds
Format: cell-based
Procedure, shortened: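 FRET read-out (CC2-DMPE donor, DiSBAC2(3) voltage-sensitive acceptor) of membrane depolarization on VIPR II. Corrector candidates incubated 16 hrs at 37° C. with NIH3T3 cells expressing F508del; temperature correction at 27° C. as positive control; stimulation by 10 μM forskolin, 20 μM genistein, chloride-free gluconate bath.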

[1] = F508del CFTR modulator activity, compounds of Table 1, read-out: EC30
[2] = Table 3, compounds of Table 1 as modulators of CFTR activity, protocol not stated

T1 sequence (P13569 with tags, fused parts or gaps DEL508-508): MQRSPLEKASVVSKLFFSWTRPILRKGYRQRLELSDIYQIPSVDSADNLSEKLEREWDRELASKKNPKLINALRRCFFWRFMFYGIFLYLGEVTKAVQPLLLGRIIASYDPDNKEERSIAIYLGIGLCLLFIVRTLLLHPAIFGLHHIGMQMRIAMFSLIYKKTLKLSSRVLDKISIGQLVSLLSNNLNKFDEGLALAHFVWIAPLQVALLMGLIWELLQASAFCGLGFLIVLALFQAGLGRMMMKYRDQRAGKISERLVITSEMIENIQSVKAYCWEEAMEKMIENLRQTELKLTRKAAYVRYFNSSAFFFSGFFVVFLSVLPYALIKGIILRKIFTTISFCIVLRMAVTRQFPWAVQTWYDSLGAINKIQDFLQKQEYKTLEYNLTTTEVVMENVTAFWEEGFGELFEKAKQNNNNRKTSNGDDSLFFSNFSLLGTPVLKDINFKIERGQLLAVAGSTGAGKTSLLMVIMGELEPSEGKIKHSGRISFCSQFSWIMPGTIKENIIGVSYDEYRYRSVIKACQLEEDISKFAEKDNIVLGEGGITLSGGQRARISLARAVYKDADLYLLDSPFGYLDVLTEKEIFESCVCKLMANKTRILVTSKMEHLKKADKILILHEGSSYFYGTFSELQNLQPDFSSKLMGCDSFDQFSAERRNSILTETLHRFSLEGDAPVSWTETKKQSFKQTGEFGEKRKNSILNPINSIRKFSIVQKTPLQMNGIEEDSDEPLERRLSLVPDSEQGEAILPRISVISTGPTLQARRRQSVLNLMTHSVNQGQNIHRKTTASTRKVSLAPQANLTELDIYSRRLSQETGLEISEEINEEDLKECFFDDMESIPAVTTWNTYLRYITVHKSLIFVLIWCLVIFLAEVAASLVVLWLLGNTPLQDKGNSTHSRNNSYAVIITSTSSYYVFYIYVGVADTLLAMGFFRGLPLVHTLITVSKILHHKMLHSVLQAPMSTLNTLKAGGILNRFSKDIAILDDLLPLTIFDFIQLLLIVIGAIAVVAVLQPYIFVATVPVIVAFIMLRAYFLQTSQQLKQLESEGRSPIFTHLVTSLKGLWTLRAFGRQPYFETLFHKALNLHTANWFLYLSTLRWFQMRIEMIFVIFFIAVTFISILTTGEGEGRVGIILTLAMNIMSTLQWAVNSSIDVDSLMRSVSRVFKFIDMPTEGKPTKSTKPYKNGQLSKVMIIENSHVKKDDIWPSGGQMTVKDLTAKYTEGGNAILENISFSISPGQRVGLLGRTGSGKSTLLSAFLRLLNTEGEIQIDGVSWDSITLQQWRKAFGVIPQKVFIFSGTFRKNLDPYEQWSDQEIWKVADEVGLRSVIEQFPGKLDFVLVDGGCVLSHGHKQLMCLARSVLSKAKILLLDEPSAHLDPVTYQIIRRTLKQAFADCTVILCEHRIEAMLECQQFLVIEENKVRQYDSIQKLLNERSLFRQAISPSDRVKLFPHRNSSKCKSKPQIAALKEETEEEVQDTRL

Row | SMILES | EC30 [1] [µM] | EC30 [2]
1 | Cc1cc(C)c(Cn2cc(C(C)(C)C)cc2C(=O)NS(=O)(=O)c2ccccc2)c(C)c1 [Compound 242, N-(benzenesulfonyl)-4-tert-butyl-1-[(2,4,6-trimethylphenyl)methyl]pyrrole-2-carboxamide] |  | +++ (“+++” means <3 uM)
2 | CC(C)COc1cccc(-c2ccc(C(=O)NS(=O)(=O)c3ccc[nH]c3=O)c(N3[C@H](C)CC[C@@H]3C)n2)c1 [Compound 511, 2-[(2S,5R)-2,5-dimethylpyrrolidin-1-yl]-6-(3-isobutoxyphenyl)-N-[(2-oxo-1H-pyridin-3-yl)sulfonyl]pyridine-3-carboxamide] |  | +++ (“+++” means <3 uM)
3 | CC1CN(c2ncccc2C(=O)NS(=O)(=O)c2cccc(OCc3c(Cl)cccc3Cl)n2)C(C)(C)C1 (stereo not shown) [Compound 2390, N—[[6-[(2,6-dichlorophenyl)methoxy]-2-pyridyl]sulfonyl]-2-(2,2,4-trimethylpyrrolidin-1-yl)pyridine-3-carboxamide] | < 3 | 
4 | CC(C)(C)c1ccc(C(=O)NS(=O)(=O)c2cccc(N)c2)c(Oc2ccccc2)n1 [Compound 272, N-(3-aminophenyl)sulfonyl-6-tert-butyl-2-phenoxy-pyridine-3-carboxamide] |  | ++ (“++” means between 3 uM and 10 uM)
5 | CC(C)COc1cc(F)cc(-c2ccc(C(=O)NS(=O)(=O)c3cccc(N)n3)c(OC3CCOC3)n2)c1 (stereo not shown) [Compound 433, N-[(6-amino-2-pyridyl)sulfonyl]-6-(3-fluoro-5-isobutoxy-phenyl)-2-tetrahydrofuran-3-yloxy-pyridine-3-carboxamide] |  | +++ (“+++” means <3 uM)
6 | CCOc1ccc(-c2ccc(C(=O)NS(=O)(=O)c3ccn[nH]3)c(N3CCC(C)CC3)n2)cc1 [Compound 445, 6-(4-ethoxyphenyl)-2-(4-methyl-1-piperidyl)-N-(1H-pyrazol-5-ylsulfonyl)pyridine-3-carboxamide] |  | + (“+” means greater than 10 uM)
7 | CCOc1cc(F)cc(-c2ccc(C(=O)NS(=O)(=O)c3ccn[nH]3)c(N3[C@H](C)CC[C@@H]3C)n2)c1 [Compound 382, 2-[(2R,5S)-2,5-dimethylpyrrolidin-1-yl]-6-(3-ethoxy-5-fluoro-phenyl)-N-(1H-pyrazol-5-ylsulfonyl)pyridine-3-carboxamide] |  | +++ (“+++” means <3 uM)
8 | C[C@@H]1CN(c2nc(C(C)(C)C)c(C3=CCN(C(=O)Cc4ccccc4)CC3)cc2C(=O)NS(=O)(=O)c2cccc(N)n2)C(C)(C)C1 [Compound 2417, N-[(6-amino-2-pyridyl)sulfonyl]-6-tert-butyl-5-[1-(2-phenylacetyl)-3,6-dihydro-2H-pyridin-4-yl]-2-[(4S)-2,2,4-trimethylpyrrolidin-1-yl]pyridine-3-carboxamide] | < 3 | 
9 | Cc1cc(C(=O)c2ccccc2)cc(C)c1Oc1nc(-c2cc(F)cc(OCC(C)C)c2)ccc1C(=O)NS(=O)(=O)c1cccc(N)n1 [Compound 2669, N-[(6-amino-2-pyridyl)sulfonyl]-2-(4-benzoyl-2,6-dimethyl-phenoxy)-6-(3-fluoro-5-isobutoxy-phenyl)pyridine-3-carboxamide] | < 3 | 
10 | Cc1cc(C)c(Cc2nn(C(C)(C)C)cc2C(=O)NS(=O)(=O)c2ccccc2)c(C)c1 [Compound 63, N-(benzenesulfonyl)-1-tert-butyl-3-[(2,4,6-trimethylphenyl)methyl]pyrazole-4-carboxamide] |  | +++ (“+++” means <3 uM)
11 | Cc1cc(C)c(Oc2nc(C(C)(C)C)ccc2C(=O)N=S(N)(=O)c2cccc(N)n2)c(C)c1 (stereo not shown) [Compound 515, N-[amino-(6-amino-2-pyridyl)-oxo-$1^6-sulfanylidene]-6-tert-butyl-2-(2,4,6-trimethylphenoxy)pyridine-3-carboxamide] |  | +++ (“+++” means <3 uM)
12 | CC1CN(c2ncccc2C(=O)NS(=O)(=O)c2cccc(NCCc3ccccc3Cl)n2)C(C)(C)C1 (stereo not shown) [Compound 2632, N—[[6-[2-(2-chlorophenyl)ethylamino]-2-pyridyl]sulfonyl]-2-(2,2,4-trimethylpyrrolidin-1-yl)pyridine-3-carboxamide] | < 3 | 
13 | C[C@@H]1CN(c2nc(-c3cccc4[nH]ccc34)ccc2C(=O)NS(=O)(=O)c2cccnc2N)C(C)(C)C1 [Compound 2478, N-[(2-amino-3-pyridyl)sulfonyl]-6-(1H-indol-4-yl)-2-[(4S)-2,2,4-trimethylpyrrolidin-1-yl]pyridine-3-carboxamide] | < 3 | 
14 | COCC1CCN(c2nc(-c3ccc(OC(C)C)nc3)ccc2C(=O)NS(=O)(=O)c2cccc(N)n2)CC1 [Compound 606, N-[(6-amino-2-pyridyl)sulfonyl]-6-(6-isopropoxy-3-pyridyl)-2-[4-(methoxymethyl)-1-piperidyl]pyridine-3-carboxamide] |  | ++ (“++” means between 3 uM and 10 uM)
15 | Cc1cc(C)c(Oc2nc(C3CCC(C)(C)CC3)ccc2C(=O)NS(=O)(=O)c2cccc(N)n2)c(C)c1 [Compound 538, N-[(6-amino-2-pyridyl)sulfonyl]-6-(4,4-dimethylcyclohexyl)-2-(2,4,6-trimethylphenoxy)pyridine-3-carboxamide] |  | +++ (“+++” means <3 uM)

More lines, now with the values ahead:

Row | EC30 [1] [µM] | EC30 [2] | SMILES
16 | < 3 |  | CCOc1cc(-c2ccc(C(=O)NS(=O)(=O)c3ccc[nH]c3=O)c(N3C[C@@H](C)CC3(C)C)n2)ccc1F [Compound 2459, 6-(3-ethoxy-4-fluoro-phenyl)-N-[(2-oxo-1H-pyridin-3-yl)sulfonyl]-2-[(4S)-2,2,4-trimethylpyrrolidin-1-yl]pyridine-3-carboxamide]
17 |  | +++ (“+++” means <3 uM) | Cc1cccc(C)c1Cn1nc(-c2cccc3c2ccn3C)cc1C(=O)NS(=O)(=O)c1ccccc1 [Compound 363, N-(benzenesulfonyl)-2-[(2,6-dimethylphenyl)methyl]-5-(1-methylindol-4-yl)pyrazole-3-carboxamide]
18 |  | ++ (“++” means between 3 uM and 10 uM) | CC(C)(C)c1ccc(C(=O)NS(=O)(=O)c2cccc(N)c2)c(-c2ccc(F)cc2)n1 [Compound 46, N-(3-aminophenyl)sulfonyl-6-tert-butyl-2-(4-fluorophenyl)pyridine-3-carboxamide]
19 |  | +++ (“+++” means <3 uM) | COc1ncccc1S(=O)(=O)NC(=O)c1cc2ccccc2n1Cc1c(C)cc(C)cc1C [Compound 18, N-[(2-methoxy-3-pyridyl)sulfonyl]-1-[(2,4,6-trimethylphenyl)methyl]indole-2-carboxamide]
20 |  | +++ (“+++” means <3 uM) | CC(C)Oc1ccc(-c2ccc(C(=O)NS(=O)(=O)c3cccc(N)n3)c(N3CCC(Cc4ccccc4)C3C)n2)cn1 (stereo not shown) [Compound 658, N-[(6-amino-2-pyridyl)sulfonyl]-2-(3-benzyl-2-methyl-pyrrolidin-1-yl)-6-(6-isopropoxy-3-pyridyl)pyridine-3-carboxamide]
21 | < 3 |  | CC(C)(C)c1ccc(C(=O)NS(=O)(=O)c2cccc(N)n2)c(N2CCC(C3CC3)C2(C)C)n1 (single isomer, unassigned) [Compound 2022, N-[(6-amino-2-pyridyl)sulfonyl]-6-tert-butyl-2-(3-cyclopropyl-2,2-dimethyl-pyrrolidin-1-yl)pyridine-3-carboxamide]
22 |  | +++ (“+++” means <3 uM) | Cc1cc(C)c(CN2c3ccccc3C[C@@H]2C(=O)NS(=O)(=O)c2cccc(N)n2)c(C)c1 [Compound 462, (2R)—N-[(6-amino-2-pyridyl)sulfonyl]-1-[(2,4,6-trimethylphenyl)methyl]indoline-2-carboxamide]
23 |  | +++ (“+++” means <3 uM) | Cc1cc(C)c(Oc2nc(C(C)(C)C)ccc2C(=O)NS(=O)(=O)c2ccn[nH]2)c(C)c1 [Compound 214, 6-tert-butyl-N-(1H-pyrazol-5-ylsulfonyl)-2-(2,4,6-trimethylphenoxy)pyridine-3-carboxamide]
24 | < 3 |  | CC1CN(c2ncccc2C(=O)NS(=O)(=O)c2cccc(N[C@H](C)C(C)(C)C)n2)C(C)(C)C1 (stereo partly shown) [Compound 2745]
25 |  | +++ (“+++” means <3 uM) | Cc1cc(C)c(CN2Cc3c(-c4ccccc4)cccc3C2C(=O)NS(=O)(=O)c2cccc(N)n2)c(C)c1 (stereo not shown) [Compound 554, N-[(6-amino-2-pyridyl)sulfonyl]-4-phenyl-2-[(2,4,6-trimethylphenyl)methyl]isoindoline-1-carboxamide]
26 | 3 to 10 |  | C[C@@H]1CN(c2nc(-c3cc4ccccc4n3C(=O)OC(C)(C)C)ccc2C(=O)NS(=O)(=O)c2cccnc2N)C(C)(C)C1 [Compound 2657, tert-butyl 2-[5-[(2-amino-3-pyridyl)sulfonylcarbamoyl]-6-[(4S)-2,2,4-trimethylpyrrolidin-1-yl]-2-pyridyl]indole-1-carboxylate]
27 |  | ++ (“++” means between 3 uM and 10 uM) | Cc1ccc(-c2nc(C(C)(C)C)ccc2C(=O)NS(=O)(=O)c2cccnc2N)cc1 [Compound 636, N-[(2-amino-3-pyridyl)sulfonyl]-6-tert-butyl-2-(p-tolyl)pyridine-3-carboxamide]
28 | < 3 |  | CCOc1ccccc1-c1cnc(N2CC(C)CC2(C)C)c(C(=O)NS(=O)(=O)c2cccc(N)n2)c1 (stereo not shown) [Compound 2557, N-[(6-amino-2-pyridyl)sulfonyl]-5-(2-ethoxyphenyl)-2-(2,2,4-trimethylpyrrolidin-1-yl)pyridine-3-carboxamide]
29 |  | +++ (“+++” means <3 uM) | CCOc1ccccc1-c1ccc(C(=O)NS(=O)(=O)c2cccc(N)n2)c(Oc2c(C)cc(C)cc2C)n1 [Compound 250, N-[(6-amino-2-pyridyl)sulfonyl]-6-(2-ethoxyphenyl)-2-(2,4,6-trimethylphenoxy)pyridine-3-carboxamide]
30 |  | +++ (“+++” means <3 uM) | Cc1cc(C)c(Cn2c(C(=O)NS(=O)(=O)c3cccc(N)c3)cc3cc(C)ccc32)c(C)c1 [Compound 259, N-(3-aminophenyl)sulfonyl-5-methyl-1-[(2,4,6-trimethylphenyl)methyl]indole-2-carboxamide]
31 |  | +++ (“+++” means <3 uM) | Cc1cc(C)c(Oc2nc(-c3ccoc3)ccc2C(=O)NS(=O)(=O)c2cccc(N)n2)c(C)c1 [Compound 284, N-[(6-amino-2-pyridyl)sulfonyl]-6-(3-furyl)-2-(2,4,6-trimethylphenoxy)pyridine-3-carboxamide]
